Test results reported in patent US20080207632A1, “PROTEIN KINASE INHIBITORS” (SUPERGEN, INC., priority 2006, published 2008).
Where two headings read alike, the source gives them in different places.

What was measured:
[1] = tested on: MDA-MB-231 breast carcinoma cells; test: cell proliferation assay (Cell-Titer-Glo), MDA-MB-231; format: cell-based; settings: Homo sapiens
Method: Cell culture-based assays can be used to evaluate the ability of compounds of the invention to inhibit one or more cellular activities, such as cancer cell growth and/or survival. Numerous cancer cell lines can be obtained from the American Type Culture Collection (ATCC) and other sources. Briefly, cells are seeded into 96-well, tissue-culture treated, opaque white plates (Thermo Electron, Vantaa, Finland), at between 5000 and 10000 cells per well, depending on the speed of cell proliferation, in 100 μl of appropriate growth medium (determined by the ATCC). Cells are then exposed to the appropriate concentration of drug or an equal amount of DMSO (drug diluent) and allowed to grow in its presence for 96 hours. Following this, 100 μl of Cell-Titer-Glo reagent (Promega, Inc., Madison, Wis.) is added to each well. Plates are then shaken for 2 minutes at room temperature to allow for cell lysis and incubated for 10 minutes to stabilize the luminescent signal. Similar to the Kinase-Glo assay reagent from Promega, this reagent contains both luciferase enzyme and its substrate luciferin. Luciferase, activated by ATP in the cell lysate, catalyzes the conversion of luciferin to oxyluciferin, a reaction which produces light. The amount of light produced is proportionate to the amount of ATP in the cell lysate, which is itself proportional to cell number and gives an index of cellular proliferation.
Compound 1-1 and Compound 2-11 were tested in a cell proliferation assay to determine potency in a cell-based assay format. Briefly, MDA-MB-231 breast carcinoma cells were inoculated onto 96-well plates and incubated in the presence of compounds for 96 hours. Following incubation, cells were lysed and ATP content used as a surrogate for cell number, using the Cell-Titer-Glo Luminescent Cell Viability Assay Kit (Promega Corp.). IC50 values, representing the concentration required to reduce cell number to 50% of untreated controls, were determined to be 20 uM for Compound 1-1 and 10 uM for Compound 2-11.

[2] = tested on: HepG2 (hepatocellular carcinoma); test: in vitro cytotoxicity assay (Cell-Titer-Glo), HepG2; format: cell-based; settings: Homo sapiens, Table 10, 96 hours, read-out: IC50 HepG2 (inhibit cell growth to 50% of untreated)
[3] = tested on: Granta-4 lymphoma cell line; test: lymphoma cell number reduction, Granta-4; format: cell-based; settings: 48 hours; read-out: IC50 Values Granta-4, single agent
Method: (§1) New IC50 values were calculated for the second agent in an effort to determine whether or not pretreatment with one compound would increase sensitivity to the other. As set forth in the table below, compound 2-3 pretreatment led to an increased sensitivity to Taxol®, however Taxol® pretreatment appeared to be […] to compound 2-3 in this assay.

[4] = tested on: Histone H3 phospho-Serine 10 in MiaPaCa-2 cells; test: Western Blot for Histone H3 phospho-Serine 10; format: cell-based; settings: synchronized MiaPaCa-2 cells, 30 µM compound, 24 hours
Source text: A hallmark of Aurora-2 kinase inhibition, which distinguishes it from Aurora-1 kinase inhibition, is an increase in Histone H3 phosphorylation on Serine 10, an activity which is controlled by Aurora-1 kinase. This is in contrast to the decrease in Histone H3 phosphorylation that has been observed with Aurora-1 kinase inhibition. Compound 2-3 was examined for its effect on Histone H3 phosphorylation, in order to further verify its specificity for Aurora-2 kinsase. Briefly, MiaPaCa-2 cells were grown in 25 cm^2 flasks to approximately 40% confluency, and then synchronized with Aphidicolin and Hoechst 33342 as described above. Cell were then released and treated with 30 µM compound 2-3 in culture medium for 24 hours. Cells were then lysed, and total protein was quantified. 50 μg of total protein was electrophoresed and transferred to nitrocellulose, at which time Western Blot analysis for Histone H3 phospho-Serine 10 was performed. […] This signal quickly disappeared, as the cells began to undergo apoptosis, as discussed earlier.

[5] = tested on: Granta-22 lymphoma cell line; test: lymphoma cell number reduction, Granta-22; format: cell-based; settings: 48 hours; read-out: IC50 Values Granta-22, single agent
Method: as §1

[6] = tested on: Aurora-2 kinase (Aurora-A) over Aurora-1 kinase (Aurora-B); test: SelectScreen kinase assay, specificity within the Aurora kinase family; format: biochemical; settings: SelectScreen kinase assay system
Method: In order to determine the specificity of compound 2-3 within the Aurora kinase family, both Aurora-2 kinase (Aurora-A) and Aurora-1 kinase (Aurora-B) were examined for sensitivity to this molecule. These studies were performed using the SelectScreen kinase assay system (Invitrogen Corp.; Madison, Wis.) and gave rise to the results presented in FIG. 2.

[7] = tested on: HT-29 human colon cancer cells; test: HT-29 xenograft study in mice (Example 57); format: in vivo; settings: 5 mg/kg IP, QDx5 for three weeks
Method: In order to evaluate the effectiveness of compound 2-5 against tumor cells in a living system, a xenograft study was performed in mice. 1×10^7 HT-29 human colon cancer cells were injected subcutaneously into Nu/Nu athymic nude mice (Charles River Laboratories, Wilmington, Mass.). Tumor volume was measured according to the formula ((Width)^2*Length)/2. Tumors were allowed to grow to approximately 200 mm^3 in volume (Day 0), at which point mice were randomized to three groups. Eight mice were grouped to receive SGI-1097 as treatment, and two groups of eight would receive vehicle alone as a negative control. The SGI-1097 compound was formulated in the following vehicle: 10% EtOH; 30% PEG 300; 60% solution of 300 mg/ml 2-Hydroxypropyl-beta-cyclodextrin in water.
In the treatment group, each animal received 5 mg/kg of compound 2-5 in the aforementioned vehicle at a volume of 100 μl, dosed IP. The dosing schedule was QDx5 for three weeks. […]
Another negative control group was dosed PO with corn oil on the same dosing schedule. The tumor volumes for both the treated and untreated groups were measured twice a week for the three week dosing period, and for one week after the dosing period.

Compound `CC(=O)NS(=O)(=O)c1ccc(NC(=S)N2CCN(c3ncnc4[nH]c5cc(C(F)(F)F)c(Cl)cc5c34)CC2)cc1` [Compound 1-1, 4-(6-Chloro-7-trifluoromethyl-9H-pyrimido[4,5-b]indol-4-yl)-piperazine-1-carbothioic acid (4-acetylsulfamoyl-phenyl)-amide] has an IC50 ([1]; Example 65, 96 hours, read-out: IC50 (reduce cell number to 50% of untreated controls)) of 20 µM, an IC50 ([1]; Table 10, 96 hours, read-out: IC50 MDA-MB-231 (inhibit cell growth to 50% of untreated)) of 20.2 µM and an IC50 [2] of 7.83 µM.
For `COc1cc2[nH]c3ncnc(N4CCN(C(=S)Nc5ccc(S(=O)(=O)Nc6ccc(F)cc6)cc5)CC4)c3c2cc1OC` [Compound 2-3, 4-(6,7-dimethoxy-9H-pyrimido[4,5-b]indol-4-yl)-N-(4-(N-(4-fluorophenyl)sulfamoyl)phenyl)piperazine-1-carbothioamide], the IC50 [3] was 2.04 µM, the “Histone H3 Serine 10 phosphorylation” value [4] was “pronounced phosphorylation signal” and the IC50 [5] was 6.67 µM. For the same compound, the “selectivity for Aurora-2 kinase over Aurora-1 kinase” value [6] was “over 100 fold”.
For `COc1ccc2c(c1)[nH]c1ncnc(N3CCN(C(=S)Nc4ccc(S(=O)(=O)Nc5ccc(F)cc5)cc4)CC3)c12` [Compound 2-5, 4-(7-methoxy-9H-pyrimido[4,5-b]indol-4-yl)-N-(4-(N-(4-fluorophenyl)sulfamoyl)phenyl)piperazine-1-carbothioamide], the “toxicity through the duration of the study” value [7] was “No noticeable toxicity” and the “tumor growth inhibition in vivo” value [7] was “effective for inhibiting tumor growth in vivo”.
